Reference: patent publication US20250170239A1, “CELLULAR REPROGRAMMING BY TARGETING THE GOLGI APPARATUS” (MUSC Foundation for Research Development, priority 2023, published 2025)

Legend:
Pmel CD8+ T cells = test: H2O2-induced oxidative stress and antioxidant capacity in Pmel T cells
Procedure: (FIG. 20A) Cells treated for 12-hours with H2O2 (50 mM). FACS analysis quantifying 7-AAD+AnnexinV+ and 7−AAD−AnnexinV− populations (n=3). FIG. 20B, mRNA levels of GCLM and GCLC. (FIG. 20C) Measurements of surface thiols by AlexaFluor-488 C5 Maleimide (n=3) and intracellular glutathione by ThiolTracker Violet (n=4). […] (FIG. 20E) Fold increase in MFI for phosphorylated-PERK, phosphorylated-IRE1a, and ATF4 after 12-hr. incubation with 50 mM H2O2 (n=3). FIG. 20F, FACS quantification of cells expressing high phosphorylated-PERK levels after exhaustion assay (n=2). (FIG. 20G) Percentage of cells expressing high phosphorylated-PERK in Pmel cells overexpressing Cbs compared to Pmel cells transduced with control lentivirus (n=3). (FIG. 20H) Fold change in GM130 MFI in Pmel cells using exhaustion assay (n=3). (FIG. 20I) Cell viability and mitochondrial ROS following monensin treatment (1 mM). […] (FIG. 20K) GM130 MFI values in Pmel T cells overexpressing Cbs compared to control cells after transfer into tumor-bearing mice and TIL isolation after 7 days (n=4). (FIG. 20L) Pmel T cells cultured with B16-F10 supernatant and gp100, followed by FACS sorting for PD1+TIM3+ and PD1−TIM3− cells. Sorted cells stained with anti-Giantin antibody and analyzed for Golgi area via ImageStream. (FIG. 20M) FACS analysis of GM130 expression in PD1+TIM3+ and PD1−TIM3− populations. (FIG. 20N) Pmel cells treated with 1 mM monensin and analyzed for intracellular ROS (DCFDA). (FIG. 20O) FACS analysis of GM130 expression in Pmel cells treated with 50 mM H2O2 (6-hours). Data represent mean±SEM. Analyzed by two-sided Student's t-test or one-way ANOVA. ns, p-value >0.05; p-value *≤0.05; **≤0.01; ***≤0.001; ****≤0.0001.

Pmel T cells = test: Golgi stress (monensin, H2O2, thapsigargin) in Pmel T cells: GM130, ROS, Golgi dispersion; assay type: cell-based, mouse; design: cell death / mitochondrial ROS / monensin-induced cell death and mitochondrial ROS accumulation / ER stress (p-PERK): dose or concentration left out as unconfirmed
Procedure: (FIG. 21A) Levels of intracellular glutathione assessed using FACS by employing ThiolTracker Violet dye in control CD19 CAR-T cells or CAR-T cells overexpressing Cbs (CbstdCD19-CAR-T) (n=3). (FIG. 21B) 12 hour Thapsigargin (700 nM) treatment was used to induce ER stress in WT T cells, Cbs-KO T cells, and Cbs-KO T cells+H2S. Levels of phosphorylated PERK were assessed by FACS (n=3). (FIG. 21C) Pmel T cells were treated with either Thapsigargin (700 nM) or Monensin (1 mM) for 12 hours, followed by staining for phosphorylated PERK (p-PERK) and GM130 to assess ER stress and Golgi stress, respectively (n=4). (FIG. 21D) Activated Pmel T cells were treated for 12 hours with either vehicle control or 1 mM Monensin (“+Golgi stress”) before being stained for giantin to assess Golgi dispersion. […] (FIG. 21E) Representative confocal microscopy images of mitochondria (Tom20) and Golgi (giantin) in human PBMCs treated with vehicle control or 0.5 mM GYY4137.
T cells were stained with conjugated for surface markers as described in the figure legends followed by fixation and permeabilization with BD Cytofix/Cytoperm Kit (BD Biosciences, 554722). The Golgi was labeled using anti-Giantin antibody (Abcam, ab80864) as the primary antibody followed by secondary antibody staining with anti-Rabbit IgG conjugated to Alexa Fluor 488 (ab150077). The cells were then imaged using ImageStreamX mark II imaging flow-cytometer and analyzed using IDEAS 6.2. Spectral overlap was compensated for using single-stain controls. Image analysis for Golgi area was performed using the protocol established by Eisenberg-Lerner et al.44 First, cells were gated on single cells using the area and aspect ratio features, and then gated on focused cells using the Gradient RMS feature. Golgi area was calculated using the anti-Giantin fluorescence signaling, using on the Threshold_50 mask that includes the 50% highest intensity pixels of the Golgi staining, with a mask defined as Area Threshold 50 was considered as the Golgi area to compare between the relevant conditions.

SMILES: C1COCCN1.COc1ccc(P(=S)(S)N2CCOCC2)cc1 (stereo not drawn) [GYY4137]
- apoptotic cell death (7-AAD, AnnexinV) (Pmel CD8+ T cells; 12-hours H2O2 (50 mM), +/− 0.5 mM GYY4137): significant decrease in apoptotic cell death
- expression of GCLC and GCLM (mRNA) (Pmel CD8+ T cells; +/− 0.5 mM GYY4137): increased expression
- intracellular glutathione (iGSH) (Pmel CD8+ T cells; ThiolTracker Violet): increase
- monensin-induced ROS (DCFDA) (Pmel T cells; 1 mM monensin with H2S treatment): mitigated
- H2O2-mediated changes in Golgi stress (GM130 levels) (Pmel T cells; 50 mM H2O2 (6-hours)): mitigated
- monensin-induced cell death and mitochondrial ROS accumulation (Pmel T cells; monensin in presence of H2S): partially mitigated
